Data on 29 compounds can be found in patent US6982348B2, “Aminoethanol derivatives” (Takeda Pharmaceutical Company Limited, priority 2001, dated 2006).

A word on the melting point: it is the temperature of the solid-liquid transition.

Structures are written as SMILES. Where a name gives a salt, the structure may show the parent alone.

`COC(=O)CCC(=O)O[C@H](c1ccc(F)cc1)[C@H](Cc1cccc(OC(F)(F)C(F)F)c1)NC(=O)c1cccc2c1C=CCCC2` (racemic) (as salt: succinate) [Example 383, (1RS,2SR)-2-[(6,7-dihydro-5H-benzo[a]cyclohepten-1-ylcarbonyl)amino]-1-(4-fluorophenyl)-3-[3-(1,1,2,2-tetrafluoroethoxy)phenyl]propyl methyl succinate] came in with a melting point of 170 to 171 °C.

The compound `O=C(O)CCC(=O)O[C@H](c1ccc(F)cc1)[C@H](Cc1cccc(OC(F)(F)C(F)F)c1)NC(=O)c1cccc2c1C=CCCC2` (racemic) (as salt: succinate) [Example 384, (1RS,2SR)-2-[(6,7-dihydro-5H-benzo[a]cyclohepten-1-ylcarbonyl)amino]-1-(4-fluorophenyl)-3-[3-(1,1,2,2-tetrafluoroethoxy)phenyl]propyl hydrogen succinate] yielded a melting point of 154 to 155 °C.

Take `O=C(O)CCC(=O)O[C@H](c1ccc(F)cc1)[C@H](Cc1cccc(OC(F)(F)C(F)F)c1)NC(=O)c1ccc(F)c2ccccc12` (racemic) (as salt: succinate) [Example 388, (1RS,2SR)-2-[(4-fluoro-1-naphthoyl)amino]-1-(4-fluorophenyl)-3-[3-(1,1,2,2-tetrafluoroethoxy)phenyl]propyl hydrogen succinate]: the melting point lay within 181 to 182 °C.

In turn, `O=C(O)CCC(=O)O[C@H](c1ccc(F)cc1)[C@H](Cc1ccc(C(F)(F)F)cc1)NC(=O)c1cccc2c(Cl)cccc12` (racemic) (as salt: succinate) [Example 394, (1RS,2SR)-2-[(5-chloro-1-naphthoyl)amino]-1-(4-fluorophenyl)-3-[4-(trifluoromethyl)phenyl]propyl hydrogen succinate] displayed a melting point of 228 to 229 °C.

The compound `O=C(O)CCC(=O)O[C@H](c1ccc(F)cc1)[C@H](Cc1ccc2c(c1)OC(F)(F)C(F)(F)O2)NC(=O)c1ccc(F)c2ccccc12` (racemic) (as salt: succinate) [Example 396, (1RS,2SR)-1-(4-fluorophenyl)-2-[(4-fluoro-1-naphthoyl)amino]-3-(2,2,3,3-tetrafluoro-2,3-dihydro-1,4-benzodioxin-6-yl)propyl hydrogen succinate] returned a melting point of 196 to 197 °C.

In turn, `O=C(NC(Cc1ccc(C(F)(F)F)cc1)C(O)c1ccc(F)cc1)c1cccc2ccccc12` (racemic) [Example 1, N-[2-(4-fluorophenyl)-2-hydroxy-1-[[4-(trifluoromethyl)phenyl]methyl]ethyl]-1-naphthalenecarboxamide] displayed a melting point of 159 to 181 °C.

The compound `Cc1ccc(C(=O)NC(Cc2ccc(C(F)(F)F)cc2)C(O)c2ccc(F)cc2)c2ccccc12` (racemic) [Example 2, N-(2-(4-fluorophenyl)-2-hydroxy-1-((4-(trifluoromethyl)phenyl)methyl)ethyl)-4-methyl-1-naphthalenecarboxamide] returned a melting point of 149 to 150 °C.

As for `O=C(CCCc1cccs1)NC(Cc1ccc(C(F)(F)F)cc1)C(O)c1ccc(F)cc1` (racemic) [Example 4, N-(2-(4-fluorophenyl)-2-hydroxy-1-((4-(trifluoromethyl)phenyl)methyl)ethyl)-4-(2-thienyl)butyramide], the melting point fell in the range of 123 to 124 °C.

In the case of `O=C(NC(Cc1ccc(C(F)(F)F)cc1)C(O)c1ccc(F)cc1)C1CCCC1` (racemic) [Example 5, N-[2-(4-fluorophenyl)-2-hydroxy-1-[[4-(trifluoromethyl)phenyl]methyl]ethyl]cyclopentanecarboxamide], the melting point was in the range of 139 to 155 °C.

With `O=C(NC(Cc1ccc(C(F)(F)F)cc1)C(O)c1ccc(F)cc1)c1ccc(F)cc1` (racemic) [Example 6, 4-fluoro-N-[2-(4-fluorophenyl)-2-hydroxy-1-[[4-(trifluoromethyl)phenyl]methyl]ethyl]benzamide], the melting point is 155 to 179 °C.

For `COc1ccc(C(=O)NC(Cc2ccc(C(F)(F)F)cc2)C(O)c2ccc(F)cc2)cc1` (racemic) [Example 7, N-[2-(4-fluorophenyl)-2-hydroxy-1-[[4-(trifluoromethyl)phenyl]methyl]ethyl]-4-methoxybenzamide], the melting point fell in the range of 174 to 176 °C.

In turn, `O=C(NC(Cc1ccc(C(F)(F)F)cc1)C(O)c1ccc(F)cc1)C1CCCCC1` (racemic) [Example 8, N-[2-(4-fluorophenyl)-2-hydroxy-1-[[4-(trifluoromethyl)phenyl]methyl]ethyl]cyclohexanecarboxamide] showed a melting point of 161 to 178 °C.

`O=C(NC(Cc1ccc(C(F)(F)F)cc1)C(O)c1ccc(F)cc1)c1ccc(Cl)cc1` (racemic) [Example 9, 4-chloro-N-[2-(4-fluorophenyl)-2-hydroxy-1-[[4-(trifluoromethyl)phenyl]methyl]ethyl]benzamide]: the melting point lay in the range of 170 to 180 °C.

Compound `O=C(NC(Cc1ccc(C(F)(F)F)cc1)C(O)c1ccc(F)cc1)c1ccccc1-c1ccccc1` (racemic) [Example 10, N-[2-(4-fluorophenyl)-2-hydroxy-1-[[4-(trifluoromethyl)phenyl]methyl]ethyl]-2-phenylbenzamide] displayed a melting point of 133 to 134 °C.

With `O=C(NC(Cc1ccc(C(F)(F)F)cc1)C(O)c1ccc(F)cc1)c1cccs1` (racemic) [Example 11, N-[2-(4-fluorophenyl)-2-hydroxy-1-[[4-(trifluoromethyl)phenyl]methyl]ethyl]-2-thiophenecarboxamide], the melting point lay within 135 to 164 °C.

For the compound `O=C(NC(Cc1ccc(C(F)(F)F)cc1)C(O)c1ccc(F)cc1)c1ccc(C(F)(F)F)cc1` (racemic) [Example 12, N-[2-(4-fluorophenyl)-2-hydroxy-1-[[4-(trifluoromethyl)phenyl]methyl]ethyl]-4-(trifluoromethyl)benzamide], the melting point fell in the range of 167 to 169 °C.

Compound `CCCCc1ccc(C(=O)NC(Cc2ccc(C(F)(F)F)cc2)C(O)c2ccc(F)cc2)cc1` (racemic) [Example 13, 4-butyl-N-[2-(4-fluorophenyl)-2-hydroxy-1-[[4-(trifluoromethyl)phenyl]methyl]ethyl]benzamide] displayed a melting point of 138 to 158 °C.

`O=C(NC(Cc1ccc(C(F)(F)F)cc1)C(O)c1ccc(F)cc1)c1ccc2ccccc2c1` (racemic) [Example 14, N-[2-(4-fluorophenyl)-2-hydroxy-1-[[4-(trifluoromethyl)phenyl]methyl]ethyl]-2-naphthalenecarboxamide] gave a melting point of 148 to 150 °C.

Take `O=C(NC(Cc1ccc(C(F)(F)F)cc1)C(O)c1ccc(F)cc1)C12CC3CC(CC(C3)C1)C2` (racemic) [Example 15, N-[2-(4-fluorophenyl)-2-hydroxy-1-[[4-(trifluoromethyl)phenyl]methyl]ethyl]adamantane-1-carboxamide]: the melting point was in the range of 169 to 170 °C.

Compound `CC(C)(C)C(=O)NC(Cc1ccc(C(F)(F)F)cc1)C(O)c1ccc(F)cc1` (racemic) [Example 16, N-[2-(4-fluorophenyl)-2-hydroxy-1-[[4-(trifluoromethyl)phenyl]methyl]ethyl]-2,2-dimethylpropionamide] came in with a melting point of 97 to 99 °C.

`Cc1cc(C)c(C(=O)NC(Cc2ccc(C(F)(F)F)cc2)C(O)c2ccc(F)cc2)c(C)c1` (racemic) [Example 17, N-[2-(4-fluorophenyl)-2-hydroxy-1-[[4-(trifluoromethyl)phenyl]methyl]ethyl]-2,4,6-trimethylbenzamide]: the melting point fell in the range of 141 to 143 °C.

For the compound `O=C(NC(Cc1ccc(C(F)(F)F)cc1)C(O)c1ccc(F)cc1)c1ccccc1F` (racemic) [Example 18, 2-fluoro-N-[2-(4-fluorophenyl)-2-hydroxy-1-[[4-(trifluoromethyl)phenyl]methyl]ethyl]benzamide], the melting point was in the range of 115 to 117 °C.

In turn, `CC(C)(C)c1ccc(C(=O)NC(Cc2ccc(C(F)(F)F)cc2)C(O)c2ccc(F)cc2)cc1` (racemic) [Example 19, 4-tert-butyl-N-[2-(4-fluorophenyl)-2-hydroxy-1-[[4-(trifluoromethyl)phenyl]methyl]ethyl]benzamide] registered a melting point of 58 °C.

`O=C(NC(Cc1ccc(C(F)(F)F)cc1)C(O)c1ccc(F)cc1)c1ccc(-c2ccccc2)cc1` (racemic) [Example 20, N-[2-(4-fluorophenyl)-2-hydroxy-1-[[4-(trifluoromethyl)phenyl]methyl]ethyl]-4-phenylbenzamide] yielded a melting point of 178 to 185 °C.

`O=C(NC(Cc1ccc(C(F)(F)F)cc1)C(O)c1ccc(F)cc1)c1cccnc1` (racemic) [Example 21, N-[2-(4-fluorophenyl)-2-hydroxy-1-[[4-(trifluoromethyl)phenyl]methyl]ethyl]-3-pyridinecarboxamide] yielded a melting point of 160 to 165 °C.

With `CC(C)(C)OC(=O)N[C@H](Cc1ccc(C(F)(F)F)cc1)[C@H](O)c1ccc(F)cc1` (racemic) [Example 24, 1,1-dimethylethyl(1RS,2RS)-2-(4-fluorophenyl)-2-hydroxy-1-((4-(trifluoromethyl)phenyl)methyl)ethylcarbamate], the melting point is 95 to 96 °C.

Consider `CCOc1ccc2ccccc2c1C(=O)N[C@H](Cc1ccc(C(F)(F)F)cc1)[C@H](O)c1ccc(F)cc1` (racemic) [Example 25, 2-(ethyloxy)-N-((1RS,2RS)-2-(4-fluorophenyl)-2-hydroxy-1-((4-(trifluoromethyl)phenyl)methyl)ethyl)-1-naphthalenecarboxamide], for which the melting point was in the range of 186 to 187 °C.

In turn, `O=C(N[C@H](Cc1ccc(C(F)(F)F)cc1)[C@H](O)c1ccc(F)cc1)c1cccc2ccccc12` (racemic) [Example 26, N-((1RS,2RS)-2-(4-fluorophenyl)-2-hydroxy-1-((4-(trifluoromethyl)phenyl)methyl)ethyl)-1-naphthalenecarboxamide] gave a melting point of 134 to 135 °C.

Take `O=C(N[C@H](Cc1ccc(C(F)(F)F)cc1)[C@H](O)c1ccc(F)cc1)c1ccc(C(F)(F)F)cc1` (racemic) [Example 27, N-((1RS,2RS)-2-(4-fluorophenyl)-2-hydroxy-1-((4-(trifluoromethyl)phenyl)methyl)ethyl)-4-(trifluoromethyl)benzamide]: the melting point is 162 to 163 °C.
